Experiments:
[1] = accelerated stability tests in comparison with crystal A; type: physicochemical
Description: Cefdinir in the new crystalline form was subjected to accelerated stability tests in comparison with crystal A claimed in U.S. Pat. No. 4,935,507.

[2] = dissolution tests in 0.07 N HCl; type: physicochemical; conditions: after the first hour, compared with crystal A

C=CC1=C(C(=O)O)N2C(=O)[C@@H](NC(=O)/C(=N\O)c3csc(N)n3)[C@H]2SC1 [new crystal, cefdinir]
stability ([1]; compared with reference crystal A of U.S. Pat. No. 4,935,507): at least equal to that of the reference crystal A
stability ([1]; compared with reference crystal A of U.S. Pat. No. 4,935,507, listed as product obtained in this manner): high stability
solubility on prolonged dissolution treatment (final dissolved cefdinir value) ([2]; listed as cefdinir in the new crystalline form): more soluble than crystal A
solubility on prolonged dissolution treatment (final dissolved cefdinir value) ([2]; listed as product obtained in this manner): higher than that possible with crystal A
